Laboratory results: patent US20040156869A1, “2-substituted quinazolin-4-ylamine analogues” (Neurogen Corporation, priority 2002, published 2004)

Molecular target: human capsaicin receptor (VR1) (Homo sapiens, UniProt Q8NER1)
Assay: Capsaicin receptor binding assay ([3H]RTX competition, VR1-transfected HEK293 membranes)

Sequence of human capsaicin receptor (VR1) (Q8NER1 whole entry): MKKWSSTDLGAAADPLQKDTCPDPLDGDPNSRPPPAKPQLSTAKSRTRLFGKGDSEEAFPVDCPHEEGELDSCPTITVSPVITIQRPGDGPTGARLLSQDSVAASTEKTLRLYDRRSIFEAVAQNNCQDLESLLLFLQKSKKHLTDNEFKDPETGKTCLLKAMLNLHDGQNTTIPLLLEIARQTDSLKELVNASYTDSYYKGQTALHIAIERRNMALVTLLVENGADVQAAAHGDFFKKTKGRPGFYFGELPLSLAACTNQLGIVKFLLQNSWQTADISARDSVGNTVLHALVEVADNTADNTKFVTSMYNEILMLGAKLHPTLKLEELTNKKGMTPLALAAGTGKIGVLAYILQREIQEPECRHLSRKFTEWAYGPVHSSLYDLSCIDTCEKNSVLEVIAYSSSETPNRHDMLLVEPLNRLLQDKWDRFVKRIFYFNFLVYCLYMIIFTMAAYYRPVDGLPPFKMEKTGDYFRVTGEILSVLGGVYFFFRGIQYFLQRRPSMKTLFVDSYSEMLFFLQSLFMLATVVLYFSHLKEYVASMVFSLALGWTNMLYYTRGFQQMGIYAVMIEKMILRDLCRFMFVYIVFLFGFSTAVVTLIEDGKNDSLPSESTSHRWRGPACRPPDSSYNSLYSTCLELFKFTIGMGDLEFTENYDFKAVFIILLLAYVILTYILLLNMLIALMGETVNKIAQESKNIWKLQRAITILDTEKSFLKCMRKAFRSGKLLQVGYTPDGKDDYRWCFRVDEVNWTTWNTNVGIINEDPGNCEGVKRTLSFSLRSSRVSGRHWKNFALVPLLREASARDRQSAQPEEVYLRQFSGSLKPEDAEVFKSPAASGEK

SMILES | Ki [nM]
COCc1nc(Nc2ccc(OC(F)(F)F)cc2)c2ccc(-c3ncccc3Cl)nc2n1 [Compound 195, [7-(3-Chloro-pyridin-2-yl)-2-methoxymethyl-pyrido[2,3-d]pyrimidin-4-yl]-(4-trifluoromethoxy-phenyl)-amine] | < 1000
COCc1cc(Nc2ccc(S(=O)(=O)C(C)C)cc2)c2ccc(-c3ncccc3C(F)(F)F)nc2n1 [Compound 306, [2-Methoxymethyl-7-(3-trifluoromethyl-pyridin-2-yl)-[1,8]naphthyridin-4-yl]-[4-(propane-2-sulfonyl)-phenyl]-amine] | < 1000
CCCS(=O)(=O)c1ccc(Nc2nc(CN3C[C@@H](C)O[C@@H](C)C3)nc3cc(-c4ncccc4C(F)(F)F)cnc23)cc1 [Compound 594, [2-(2,6-Dimethyl-morpholin-4-ylmethyl)-7-(3-trifluoromethyl-pyridin-2-yl)-pyrido[3,2-d]pyrimidin-4-yl]-[4-(propane-1-sulfonyl)-phenyl]-amine (cis)] | < 1000
COCc1nc(Nc2ccc(S(=O)(=O)C(F)(F)F)cc2)c2ccc(-c3ncccc3C(F)(F)F)cc2n1 [Compound 35, [2-Methoxymethyl-7-(3-trifluoromethyl-pyridin-2-yl)-quinazolin-4-yl]-(4-trifluoromethanesulfonyl-phenyl)-amine] | < 1000
CCOCCNC(=O)c1nc(Nc2ccc(C(F)(F)F)cc2)c2ccc(-c3ncccc3C(F)(F)F)nc2n1 [Compound 454, 4-(4-Trifluoromethyl-phenylamino)-7-(3-trifluoromethyl-pyridin-2-yl)-pyrido[2,3-d]pyrimidine-2-carboxylic acid (2-ethoxy-ethyl)-amide] | < 1000
FC(F)(F)c1ccc(Nc2nc(CN3CCN(CCN4CCOCC4)CC3)nc3cc(-c4ncccc4C(F)(F)F)ccc23)cc1 [Compound 518, [2-[4-(2-Morpholin-4-yl-ethyl)-piperazin-1-ylmethyl]-7-(3-trifluoromethyl-pyridin-2-yl)-quinazolin-4-yl]-(4-trifluoromethyl-phenyl)-amine] | < 1000
CCCCN(CC)Cc1nc(Nc2ccc(C(F)(F)F)cc2)c2ccc(-c3ncccc3C(F)(F)F)cc2n1 [Compound 334] | < 1000
CC(C)N1CCN(Cc2nc(Nc3ccc(C(F)(F)F)cc3)c3ccc(-c4ncccc4C(F)(F)F)cc3n2)CC1 [Compound 512, [2-(4-Isopropyl-piperazin-1-ylmethyl)-7-(3-trifluoromethyl-pyridin-2-yl)-quinazolin-4-yl]-(4-trifluoromethyl-phenyl)-amine] | < 1000
CCCCCN(CCCCC)CCc1nc(Nc2ccc(C(F)(F)F)cc2)c2ccc(-c3ncccc3C(F)(F)F)cc2n1 [Compound 428, [2-Dipentylaminoethyl-7-(3-trifluoromethyl-pyridin-2-yl)-quinazolin-4-yl]-(4-trifluoromethyl-phenyl)-amine] | < 1000
OCCC1CCN(CCCc2nc(Nc3ccc(C(F)(F)F)cc3)c3ccc(-c4ncccc4C(F)(F)F)cc3n2)CC1 [Compound 568, 2-(1-{3-[4-(4-Trifluoromethyl-phenylamino)-7-(3-trifluoromethyl-pyridin-2-yl)-quinazolin-2-yl]-propyl}-piperidin-4-yl)-ethanol] | < 1000
COCc1cc(Nc2ccc(Cl)c(F)c2)c2ccc(-c3ncccc3C(F)(F)F)nc2n1 [Compound 304, (4-Chloro-3-fluoro-phenyl)-[2-methoxymethyl-7-(3-trifluoromethyl-pyridin-2-yl)-[1,8]naphthyridin-4-yl]-amine] | < 1000
CCN1CCN(Cc2nc(Nc3ccc(C(F)(F)F)cc3)c3ccc(-c4ncccc4C(F)(F)F)cc3n2)CC1 [Compound 628, [2-(4-Ethyl-piperazin-1-ylmethyl)-7-(3-trifluoromethyl-pyridin-2-yl)-quinazolin-4-yl]-(4-trifluoromethyl-phenyl)-amine] | < 1000
COCCN(CCOC)Cc1nc(Nc2ccc(C(F)(F)F)cn2)c2ccc(-c3ncccc3C(F)(F)F)cc2n1 [Compound 521, [2-{[Bis-(2-methoxy-ethyl)-aminol]-methyl}-7-(3-trifluoromethyl-pyridin-2-yl)-quinazolin-4-yl]-(5-trifluoromethyl-pyridin-2-yl)-amine] | < 1000
CC1CCN(C(=O)c2nc(Nc3ccc(C(F)(F)F)cc3)c3ccc(-c4ncccc4C(F)(F)F)nc3n2)CC1 [Compound 462, (4-Methyl-piperidin-1-yl)-[4-(4-trifluoromethyl-phenylamino)-7-(3-trifluoromethyl-pyridin-2-yl)-pyrido[2,3-d]pyrimidin-2-yl]-methanone] | < 1000
OC1CCN(CCCc2nc(Nc3ccc(C(F)(F)F)cc3)c3ccc(-c4ncccc4C(F)(F)F)cc3n2)CC1 [Compound 570] | < 1000
CCc1ccc(Nc2nc(CN3C[C@H](C)O[C@@H](C)C3)nc3cc(-c4ncccc4C(F)(F)F)ccc23)cc1 [Compound 641, (S,S)-[2-(2,6-Dimethyl-morpholin-4-ylmethyl)-7-(3-trifluoromethyl-pyridin-2-yl)-quinazolin-4-yl]-(4-ethyl-phenyl)-amine] | < 1000
COCc1cc(Nc2ccc(S(=O)(=O)C(F)(F)F)cc2)c2ccc(-c3ncccc3C(F)(F)F)nc2n1 [Compound 308, [2-Methoxymethyl-7-(3-trifluoromethyl-pyridin-2-yl)-[1,8]naphthyridin-4-yl]-(4-trifluoromethanesulfonyl-phenyl)-amine] | < 1000
COCc1cc(Nc2ccc(F)cc2)c2ccc(-c3ncccc3C(F)(F)F)nc2n1 [Compound 303, (4-Fluoro-phenyl)-[2-methoxymethyl-7-(3-trifluoromethyl-pyridin-2-yl)-[1,8]naphthyridin-4-yl]-amine] | < 1000
CN(C)Cc1nc(Nc2ccc(S(=O)(=O)N3CCOCC3)cc2)c2ccc(-c3ncccc3C(F)(F)F)cc2n1 [Compound 721, [2-Dimethylaminomethyl-7-(3-trifluoromethyl-pyridin-2-yl)-quinazolin-4-yl]-[4-(morpholine-4-sulfonyl)-phenyl]-amine] | < 1000
CC1CC(C)CN(Cc2nc(Nc3ccc(C(F)(F)F)nc3)c3ccc(-c4ncccc4C(F)(F)F)cc3n2)C1 (stereo not drawn) [Compound 387, [2-(3,5-Dimethyl-piperidin-1-ylmethyl)-7-(3-trifluoromethyl-pyridin-2-y)-quinazolin-4-yl]-(6-trifluoromethyl-pyridin-3-yl)-amine] | < 1000
CCOC(=O)C1CCCN(Cc2nc(Nc3ccc(C(F)(F)F)nc3)c3ccc(-c4ncccc4C(F)(F)F)cc3n2)C1 (stereo not drawn) [Compound 488, 1-[7-(3-Trifluoromethyl-pyridin-2-yl)-4-(6-trifluoromethyl-pyridin-3-ylamino)-quinazolin-2-ylmethyl]-piperidine-3-carboxylic acid ethyl ester] | < 1000
CC(C)S(=O)(=O)c1ccc(Nc2nc(CN3C[C@H](C)O[C@@H](C)C3)nc3cc(-c4ncccc4Cl)ccc23)cc1 [Compound 645, (S,S)-[7-(3-Chloro-pyridin-2-yl)-2-(2,6-dimethyl-morpholin-4-ylmethyl)-quinazolin-4-yl]-[4-(propane-2-sulfonyl)-phenyl]-amine] | < 1000
CC(C)Oc1ccc(Nc2nc(CN3C[C@@H](C)O[C@H](C)C3)nc3cc(-c4ncccc4Cl)ccc23)cn1 [Compound 629, (R,R)-[7-(3-Chloro-pyridin-2-yl)-2-(2,6-dimethyl-morpholin-4-ylmethyl)-quinazolin-4-yl]-(6-isopropoxy-pyridin-3-yl)-amine] | < 1000
Cc1cc(Nc2nc(COCC(C)C)nc3nc(-c4ncccc4C)ccc23)ccc1C(F)(F)F [Compound 183, [2-Isobutoxymethyl-7-(3-methyl-pyridin-2-yl)-pyrido[2,3-d]pyrimidin-4-yl]-(3-methyl-4-trifluoromethyl-phenyl)-amine] | < 1000
Cc1cccnc1-c1ccc2c(Nc3ccc(C(F)(F)F)cc3)nc(C(=O)O)nc2n1 [Compound 205, 7-(3-Methyl-pyridin-2-yl)-4-(4-trifluoromethyl-phenylamino)-pyrido[2,3-d]pyrimidine-2-carboxylic acid] | < 1000
C=CCN(C)Cc1nc(Nc2ccc(C(F)(F)F)nc2)c2ccc(-c3ncccc3C(F)(F)F)cc2n1 [Compound 367, [2-[(Allyl-methyl-amino)-methyl]-7-(3-trifluoromethyl-pyridin-2-yl)-quinazolin-4-yl]-(6-trifluoromethyl-pyridin-3-yl)-amine] | < 1000
CCOCc1nc(Nc2ccc(C(C)C)cc2)c2ccc(-c3ncccc3Cl)cc2n1 [Compound 80, [7-(3-Chloro-pyridin-2-yl)-2-ethoxymethyl-quinazolin-4-yl]-(4-isopropyl-phenyl)-amine] | < 1000
CC(C)COCc1nc(Nc2cccc(C(F)(F)F)c2)c2ccc(-c3ncccc3C(F)(F)F)nc2n1 [Compound 270, [2-Isobutoxymethyl-7-(3-trifluoromethyl-pyridin-2-yl)-pyrido[2,3-d]pyrimidin-4-yl]-(3-trifluoromethyl-phenyl)-amine] | < 1000
CCOCc1nc(Nc2ccc(C(C)C)cc2)c2ccc(-c3ncccc3C)nc2n1 [Compound 139, [2-Ethoxymethyl-7-(3-methyl-pyridin-2-yl)-pyrido[2,3-d]pyrimidin-4-yl]-(4-isopropyl-phenyl)-amine] | < 1000
C[C@@H]1CN(Cc2nc(Nc3ccc(F)cc3)c3ccc(-c4ncccc4Cl)cc3n2)C[C@@H](C)O1 [Compound 622, (R,R)-(4-Fluoro-phenyl)-[7-(3-chloro-pyridin-2-yl)-2-(2,6-dimethyl-morpholin-4-ylmethyl)-quinazolin-4-yl]-amine] | < 1000
